Experimental data taken from patent US10377753B2, “Substituted 4-azaindoles and their use as GluN2B receptor modulators” (Janssen Pharmaceutica NV, priority 2015, dated 2019).

Molecular target: cloned human NR1/NR2B ion channels (Homo sapiens (Human), UniProt Q05586+Q13224)
Assay: HNR2BC: effects of test articles on cloned human NR1/NR2B ion channels expressed in mammalian cells (FLIPR calcium flux)
Type: cell-based
Details: cloned human NR1/NR2B, Table 5
Summary of the method: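 In a stable Tet-On-induced cell line expressing human GluN1/GluN2B, Calcium 5-loaded cells were preincubated 5 min with compound, then stimulated 5 min with glutamate at ~EC80 plus 10 μM glycine, in pH 7.4 HEPES buffer. FLIPR calcium fluorescence was normalized to control wells.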

cloned human NR1/NR2B ion channels, sequence (Q13224 27-1484, other chains not shown): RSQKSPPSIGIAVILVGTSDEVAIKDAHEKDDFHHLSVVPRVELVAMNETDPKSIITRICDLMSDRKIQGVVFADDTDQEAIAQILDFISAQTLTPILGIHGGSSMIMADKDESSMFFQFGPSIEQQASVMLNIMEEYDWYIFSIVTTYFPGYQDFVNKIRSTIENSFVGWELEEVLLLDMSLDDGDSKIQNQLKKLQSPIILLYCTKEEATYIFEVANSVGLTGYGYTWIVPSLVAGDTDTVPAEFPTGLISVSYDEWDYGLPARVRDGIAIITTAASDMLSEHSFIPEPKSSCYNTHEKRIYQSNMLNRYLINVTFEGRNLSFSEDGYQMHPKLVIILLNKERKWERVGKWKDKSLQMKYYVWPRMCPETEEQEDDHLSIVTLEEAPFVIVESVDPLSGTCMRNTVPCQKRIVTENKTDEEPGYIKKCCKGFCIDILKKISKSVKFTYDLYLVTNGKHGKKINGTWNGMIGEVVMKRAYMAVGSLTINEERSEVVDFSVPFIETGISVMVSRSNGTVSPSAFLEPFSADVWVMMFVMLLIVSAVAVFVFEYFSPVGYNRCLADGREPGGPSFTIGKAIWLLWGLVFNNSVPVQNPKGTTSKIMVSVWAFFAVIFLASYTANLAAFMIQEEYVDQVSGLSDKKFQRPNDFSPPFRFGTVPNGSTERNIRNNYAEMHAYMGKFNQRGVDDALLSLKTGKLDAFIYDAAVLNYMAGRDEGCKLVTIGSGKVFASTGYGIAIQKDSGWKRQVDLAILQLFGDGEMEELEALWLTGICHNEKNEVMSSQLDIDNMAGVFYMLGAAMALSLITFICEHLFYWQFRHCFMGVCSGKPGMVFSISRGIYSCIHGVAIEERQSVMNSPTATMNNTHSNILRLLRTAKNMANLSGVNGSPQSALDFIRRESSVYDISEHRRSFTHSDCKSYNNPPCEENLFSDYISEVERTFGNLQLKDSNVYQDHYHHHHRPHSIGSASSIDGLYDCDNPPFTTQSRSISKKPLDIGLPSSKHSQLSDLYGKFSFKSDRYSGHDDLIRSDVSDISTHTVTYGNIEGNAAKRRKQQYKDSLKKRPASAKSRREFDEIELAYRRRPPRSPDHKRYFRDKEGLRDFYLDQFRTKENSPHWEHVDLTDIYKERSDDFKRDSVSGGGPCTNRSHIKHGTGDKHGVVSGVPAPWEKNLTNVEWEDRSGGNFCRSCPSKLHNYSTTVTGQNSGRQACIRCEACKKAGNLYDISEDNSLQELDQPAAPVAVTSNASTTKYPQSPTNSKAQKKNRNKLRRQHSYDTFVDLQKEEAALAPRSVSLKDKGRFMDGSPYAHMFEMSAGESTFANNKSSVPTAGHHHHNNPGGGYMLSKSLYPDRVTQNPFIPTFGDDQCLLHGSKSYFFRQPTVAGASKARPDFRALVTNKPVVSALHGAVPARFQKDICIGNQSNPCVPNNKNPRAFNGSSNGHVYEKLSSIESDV

Row | IC50 | pIC50 | SMILES
1 | 63.1 nM | – | CN(C)C(=O)Cn1cc(F)c2ncc(-c3ccc(Cl)s3)cc21 [Example 97, 2-[6-(5-Chloro-2-thienyl)-3-fluoro-pyrrolo[3,2-b]pyridin-1-yl]-N,N-dimethyl-acetamide]
2 | 50.1 nM | – | CN(C)C(=O)Cn1cc(F)c2ncc(-c3ccc(F)cc3)cc21 [Example 98, 2-[3-Fluoro-6-(4-fluorophenyl)pyrrolo[3,2-b]pyridin-1-yl]-N,N-dimethyl-acetamide]
3 | 631 nM | – | O=C(Cn1ccc2ncc(-c3cncc(C(F)(F)F)c3)cc21)NC1CC1 [Example 99, N-Cyclopropyl-2-[6-[5-(trifluoromethyl)-3-pyridyl]pyrrolo[3,2-b]pyridin-1-yl]acetamide]
4 | 1000 nM | – | O=C(Cn1ccc2ncc(-c3ccc(F)c(F)c3)cc21)NC1CC1 [Example 100, N-Cyclopropyl-2-[6-(3,4-difluorophenyl)pyrrolo[3,2-b]pyridin-1-yl]acetamide]
5 | 200 nM | – | O=C(Cn1ccc2ncc(-c3ccc(F)c(C(F)(F)F)c3)cc21)NC1CC1 [Example 101, N-Cyclopropyl-2-[6-[4-fluoro-3-(trifluoromethyl)phenyl]pyrrolo[3,2-b]pyridin-1-yl]acetamide]
6 | 398 nM | – | O=C(Cn1ccc2ncc(-c3cncc(C(F)(F)F)c3)cc21)N1CCC1 [Example 102, 1-(Azetidin-1-yl)-2-[6-[5-(trifluoromethyl)-3-pyridyl]pyrrolo[3,2-b]pyridin-1-yl]ethanone]
7 | 251 nM | – | O=C(Cn1ccc2ncc(-c3ccc(F)c(F)c3)cc21)N1CCC1 [Example 103, 1-(Azetidin-1-yl)-2-[6-(3,4-difluorophenyl)pyrrolo[3,2-b]pyridin-1-yl]ethanone]
8 | 31.6 nM | – | O=C(Cn1ccc2ncc(-c3ccc(F)c(C(F)(F)F)c3)cc21)N1CCC1 [Example 104, 1-(Azetidin-1-yl)-2-[6-[4-fluoro-3-(trifluoromethyl)phenyl]pyrrolo[3,2-b]pyridin-1-yl]ethanone]
9 | 39.8 nM | – | O=C(Cn1ccc2ncc(-c3ccc(F)c(C(F)(F)F)c3)cc21)N1CCCC1 [Example 105, 2-[6-[4-Fluoro-3-(trifluoromethyl)phenyl]pyrrolo[3,2-b]pyridin-1-yl]-1-pyrrolidin-1-yl-ethanone]
10 | 316 nM | – | O=C(Cn1ccc2ncc(-c3ccc(F)c(C(F)(F)F)c3)cc21)N1CC(F)(F)C1 [Example 106, 1-(3,3-Difluoroazetidin-1-yl)-2-[6-[4-fluoro-3-(trifluoromethyl)phenyl]pyrrolo[3,2-b]pyridin-1-yl]ethanone]
11 | 158 nM | – | O=C(Cn1ccc2ncc(-c3ccc(F)c(F)c3)cc21)N1CCOCC1 [Example 107, 2-[6-(3,4-Difluorophenyl)pyrrolo[3,2-b]pyridin-1-yl]-1-morpholino-ethanone]
12 | 126 nM | – | O=C(Cn1ccc2ncc(-c3ccc(F)c(C(F)(F)F)c3)cc21)N1CCOCC1 [Example 108, 2-[6-[4-Fluoro-3-(trifluoromethyl)phenyl]pyrrolo[3,2-b]pyridin-1-yl]-1-morpholino-ethanone]
13 | 158 nM | – | O=C(Cn1ccc2ncc(-c3ccnc(C(F)(F)F)c3)cc21)N1CCC1 [Example 109, 1-(Azetidin-1-yl)-2-[6-[2-(trifluoromethyl)-4-pyridyl]pyrrolo[3,2-b]pyridin-1-yl]ethanone]
14 | 251 nM | – | O=C(Cn1ccc2ncc(-c3ccnc(C(F)(F)F)c3)cc21)NC1CC1 [Example 110, N-Cyclopropyl-2-[6-[2-(trifluoromethyl)-4-pyridyl]pyrrolo[3,2-b]pyridin-1-yl]acetamide]
15 | 398 nM | – | O=C(Cn1ccc2ncc(-c3cccc(C(F)(F)F)n3)cc21)NC1CC1 [Example 111, N-Cyclopropyl-2-[6-[6-(trifluoromethyl)-2-pyridyl]pyrrolo[3,2-b]pyridin-1-yl]acetamide]
16 | 501 nM | – | Cc1ccc(-c2cnc3ccn(CC(=O)N4CCC4)c3c2)cn1 [Example 112, 1-(Azetidin-1-yl)-2-[6-(6-methyl-3-pyridyl)pyrrolo[3,2-b]pyridin-1-yl]ethanone]
17 | 5010 nM | – | N#Cc1ccc(-c2cnc3ccn(CC(=O)N4CCC4)c3c2)cn1 [Example 113, 5-[1-[2-(Azetidin-1-yl)-2-oxo-ethyl]pyrrolo[3,2-b]pyridin-6-yl]pyridine-2-carbonitrile]
18 | > 10000 nM | – | Fc1ccc(-c2cnc3ccn(Cc4cncnc4)c3c2)cc1F [Example 114, 6-(3,4-Difluorophenyl)-1-(pyrimidin-5-ylmethyl)pyrrolo[3,2-b]pyridine]
19 | 316 nM | – | Fc1cnc(Cn2ccc3ncc(-c4ccc(F)c(F)c4)cc32)nc1 [Example 115, 6-(3,4-Difluorophenyl)-1-[(5-fluoropyrimidin-2-yl)methyl]pyrrolo[3,2-b]pyridine]
20 | 794 nM | – | O=C(C1CCC1)n1ccc2ncc(-c3ccc(F)c(F)c3)cc21 [Example 116, Cyclobutyl-[6-(3,4-difluorophenyl)pyrrolo[3,2-b]pyridin-1-yl]methanone]
21 | 5010 nM | – | O=C(Cn1ccc2ncc(-c3cccc(C(F)(F)F)n3)cc21)N1CC(F)(F)C1 [Example 117, 1-(3,3-Difluoroazetidin-1-yl)-2-[6-[6-(trifluoromethyl)-2-pyridyl]pyrrolo[3,2-b]pyridin-1-yl]ethanone]

Row | IC50 | pIC50 | SMILES
22 | 100 nM | – | O=C(Cn1ccc2ncc(-c3ccc(F)c(F)c3F)cc21)N1CCC1 [Example 118, 1-(Azetidin-1-yl)-2-[6-(2,3,4-trifluorophenyl)pyrrolo[3,2-b]pyridin-1-yl]ethanone]
23 | 50.1 nM | – | O=C(CC1CC1)n1ccc2ncc(-c3ccc(F)c(F)c3)cc21 [Example 119, 2-Cyclopropyl-1-[6-(3,4-difluorophenyl)pyrrolo[3,2-b]pyridin-1-yl]ethanone]
24 | 631 nM | – | O=C(Cn1ccc2ncc(-c3ccc(F)c(F)c3F)cc21)N1CCCC1 [Example 120, 1-Pyrrolidin-1-yl-2-[6-(2,3,4-trifluorophenyl)pyrrolo[3,2-b]pyridin-1-yl]ethanone]
25 | 63.1 nM | – | O=C(Cn1ccc2ncc(-c3cc(F)cc(F)c3)cc21)N1CC(F)(F)C1 [Example 121, 1-(3,3-difluoroazetidin-1-yl)-2-[6-(3,5-difluorophenyl)pyrrolo[3,2-b]pyridin-1-yl]ethanone]
26 | 39.8 nM | – | O=C(Cn1ccc2ncc(-c3cc(F)cc(F)c3)cc21)N1CCCC1 [Example 122, 2-[6-(3,5-Difluorophenyl)pyrrolo[3,2-b]pyridin-1-yl]-1-pyrrolidin-1-yl-ethanone]
27 | 20 nM | – | O=C(Cn1ccc2ncc(-c3cc(F)c(F)c(F)c3)cc21)N1CCCC1 [Example 123, 1-Pyrrolidin-1-yl-2-[6-(3,4,5-trifluorophenyl)pyrrolo[3,2-b]pyridin-1-yl]ethanone]
28 | 31.6 nM | – | O=C(Cn1ccc2ncc(-c3cc(F)c(F)c(F)c3)cc21)N1CC(F)(F)C1 [Example 124, 1-(3,3-Difluoroazetidin-1-yl)-2-[6-(3,4,5-trifluorophenyl)pyrrolo[3,2-b]pyridin-1-yl]ethanone]
29 | 31.6 nM | – | O=C(Cn1ccc2ncc(-c3cc(F)cc(F)c3)cc21)N1CCOCC1 [Example 125, 2-[6-(3,5-Difluorophenyl)pyrrolo[3,2-b]pyridin-1-yl]-1-morpholino-ethanone]
30 | 100 nM | – | O=C(Cn1ccc2ncc(-c3ccc(F)c(F)c3F)cc21)N1CCOCC1 [Example 126, 1-Morpholino-2-[6-(2,3,4-trifluorophenyl)pyrrolo[3,2-b]pyridin-1-yl]ethanone]
31 | 158 nM | – | O=C(Cn1ccc2ncc(-c3cc(F)c(F)c(F)c3)cc21)N1CCOCC1 [Example 127, 1-Morpholino-2-[6-(3,4,5-trifluorophenyl)pyrrolo[3,2-b]pyridin-1-yl]ethanone]
32 | 63.1 nM | – | O=C(Cn1ccc2ncc(-c3ccc(F)c(F)c3)cc21)N1CC(F)C1 [Example 128, 2-[6-(3,4-Difluorophenyl)pyrrolo[3,2-b]pyridin-1-yl]-1-(3-fluoroazetidin-1-yl)ethanone]
33 | 25.1 nM | – | O=C(Cn1ccc2ncc(-c3cc(F)cc(F)c3)cc21)N1CC(F)C1 [Example 129, 2-[6-(3,5-Difluorophenyl)pyrrolo[3,2-b]pyridin-1-yl]-1-(3-fluoroazetidin-1-yl)ethanone]
34 | – | 7.7 | Cc1csc(-c2cnc3ccn(Cc4cccnn4)c3c2)c1 [Example 130, 6-(4-Methyl-2-thienyl)-1-(pyridazin-3-ylmethyl)pyrrolo[3,2-b]pyridine]
35 | 126 nM | – | Fc1ccc(-c2cnc3ccn(Cc4cccnn4)c3c2)cc1F [Example 131, 6-(3,4-Difluorophenyl)-1-(pyridazin-3-ylmethyl)pyrrolo[3,2-b]pyridine]
36 | 126 nM | – | Cc1csc(-c2cnc3ccn(CC(=O)N4CCOCC4)c3c2)c1 [Example 132, 2-[6-(4-Methyl-2-thienyl)pyrrolo[3,2-b]pyridin-1-yl]-1-morpholino-ethanone]
37 | 79.4 nM | – | O=C(Cn1ccc2ncc(-c3ccc(F)cc3F)cc21)N1CCC1 [Example 133, 1-(Azetidin-1-yl)-2-[6-(2,4-difluorophenyl)pyrrolo[3,2-b]pyridin-1-yl]ethanone]
38 | 31.6 nM | – | O=C(Cn1ccc2ncc(-c3cccc(F)c3F)cc21)N1CCC1 [Example 134, 1-(Azetidin-1-yl)-2-[6-(2,3-difluorophenyl)pyrrolo[3,2-b]pyridin-1-yl]ethanone]
39 | 39.8 nM | – | O=C(Cn1ccc2ncc(-c3cc(F)ccc3F)cc21)N1CCC1 [Example 135, 1-(Azetidin-1-yl)-2-[6-(2,5-difluorophenyl)pyrrolo[3,2-b]pyridin-1-yl]ethanone]
40 | 63.1 nM | – | O=C(Cn1cc(F)c2ncc(-c3ccc(F)c(F)c3)cc21)C1CC1 [Example 136, 1-Cyclopropyl-2-[6-(3,4-difluorophenyl)-3-fluoro-pyrrolo[3,2-b]pyridin-1-yl]ethanone]
41 | – | 7.7 | Cc1csc(-c2cnc3ccn(Cc4ccc(C(F)(F)F)o4)c3c2)c1 [Example 137, 6-(4-Methyl-2-thienyl)-1-[[5-(trifluoromethyl)-2-furyl]methyl]pyrrolo[3,2-b]pyridine]
42 | 31.6 nM | – | CC(C)(C)C(=O)Cn1ccc2ncc(-c3ccc(F)c(F)c3)cc21 [Example 140, 1-[6-(3,4-Difluorophenyl)pyrrolo[3,2-b]pyridin-1-yl]-3,3-dimethyl-butan-2-one]
